From the supplement of paper PMC7214452

Key:
Experiment in all cases: normalized area under the dose-response curve (viability relative to DMSO control) (fraction); higher = less sensitive (more viable cells)
Details in all cases: exposure time not given
[1] = tested on: KMS18 (cancer type: MM)
Protocol: (§1)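 25 myeloma and 15 non-Hodgkin lymphoma cell lines were exposed to each of 76 drugs as 7-point log dilutions (0.01 nM–10 µM) in duplicate. Viability was read with CellTiter-Glo and normalised to DMSO (0.1%) and staurosporine (10 µM) plate controls. Normalised AUC was calculated by the trapezoidal method relative to the negative control.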

[2] = tested on: OCI-MY7 (cancer type: MM)
Protocol: as §1

[3] = tested on: AMO1 (cancer type: MM)
Protocol: as §1

[4] = tested on: NCI-H929 (cancer type: MM)
Protocol: as §1

[5] = tested on: KMS34 (cancer type: MM)
Protocol: as §1

[6] = tested on: OCI-LY1 (cancer type: DLBCL)
Protocol: as §1

[7] = tested on: Se-Ax (cancer type: TCL)
Protocol: as §1

[8] = tested on: SR-786 (cancer type: TCL)
Protocol: as §1

[9] = tested on: Granta-519 (cancer type: Mantle)
Protocol: as §1

[10] = tested on: JVM2 (cancer type: Mantle)
Protocol: as §1

[11] = tested on: My-La (cancer type: TCL)
Protocol: as §1

[12] = tested on: OCI-MY5/Vec (cancer type: MM)
Protocol: as §1

[13] = tested on: OCI-LY19 (cancer type: DLBCL)
Protocol: as §1

[14] = tested on: OCI-MY5 (cancer type: MM)
Protocol: as §1

[15] = tested on: OPM2 (cancer type: MM)
Protocol: as §1

[16] = tested on: XG2 (cancer type: MM)
Protocol: as §1

[17] = tested on: KMS28BM (cancer type: MM)
Protocol: as §1

[18] = tested on: L363 (cancer type: MM)
Protocol: as §1

[19] = tested on: KMS26 (cancer type: MM)
Protocol: as §1

[20] = tested on: KMS11 (cancer type: MM)
Protocol: as §1

[21] = tested on: HuT 78 (cancer type: TCL)
Protocol: as §1

[22] = tested on: Mino (cancer type: Mantle)
Protocol: as §1

[23] = tested on: OCI-MY5/CRBN (cancer type: MM)
Protocol: as §1

[24] = tested on: KMS28PE (cancer type: MM)
Protocol: as §1

[25] = tested on: JJN3 (cancer type: MM)
Protocol: as §1

[26] = tested on: U266 (cancer type: MM)
Protocol: as §1

[27] = tested on: LP1 (cancer type: MM)
Protocol: as §1

[28] = tested on: EJM (cancer type: MM)
Protocol: as §1

[29] = tested on: KMS12PE (cancer type: MM)
Protocol: as §1

[30] = tested on: MM1.R (cancer type: MM)
Protocol: as §1

[31] = tested on: MM1.S (cancer type: MM)
Protocol: as §1

[32] = tested on: JeKo-1 (cancer type: Mantle)
Protocol: as §1

[33] = tested on: SU-DHL1 (cancer type: TCL)
Protocol: as §1

[34] = tested on: RPMI 8226 (cancer type: MM)
Protocol: as §1

[35] = tested on: FR4 (cancer type: MM)
Protocol: as §1

[36] = tested on: SU-DHL2 (cancer type: DLBCL)
Protocol: as §1

[37] = tested on: OCI-LY3 (cancer type: DLBCL)
Protocol: as §1

[38] = tested on: Karpas-299 (cancer type: TCL)
Protocol: as §1

[39] = tested on: SU-DHL6 (cancer type: DLBCL)
Protocol: as §1

[40] = tested on: SKMM2 (cancer type: MM)
Protocol: as §1

In the case of `CC1(C)CCC(CN2CCN(c3ccc(C(=O)NS(=O)(=O)c4ccc(NCC5CCOCC5)c([N+](=O)[O-])c4)c(Oc4cnc5[nH]ccc5c4)c3)CC2)=C(c2ccc(Cl)cc2)C1` [Venetoclax], the “normalized area under the dose-response curve” value (“normalized area” for short) [1] is reported as 0.514, the “normalized area” value [2] is reported as 0.14 and the “normalized area” value [3] is reported as 0.64. The “normalized area” value [4] was 0.82, the “normalized area” value [5] was 0.525 and the “normalized area” value [6] was 0.176. The “normalized area” value [7] was 0.196, the “normalized area” value [8] was 0.952 and the “normalized area” value [9] was 0.212. For the same compound, the “normalized area” value [10] was 0.73, the “normalized area” value [11] was 0.872 and the “normalized area” value [12] was 0.0321. For the same compound, the “normalized area” value [13] was 0.247, the “normalized area” value [14] was 0.101 and the “normalized area” value [15] was 0.371. The “normalized area” value [16] was 0.846, the “normalized area” value [17] was 0.119 and the “normalized area” value [18] was 0.584. The “normalized area” value [19] was 0.919, the “normalized area” value [20] was 0.591 and the “normalized area” value [21] was 0.752. For the same compound, the “normalized area” value [22] was 0.876, the “normalized area” value [23] was 0.0571 and the “normalized area” value [24] was 0.251. For the same compound, the “normalized area” value [25] was 0.354, the “normalized area” value [26] was 0.366 and the “normalized area” value [27] was 0.817. For the same compound, the “normalized area” value [28] was 0.615, the “normalized area” value [29] was 0.09 and the “normalized area” value [30] was 0.48. For the same compound, the “normalized area” value [31] was 0.57, the “normalized area” value [32] was 0.686 and the “normalized area” value [33] was 0.696. The “normalized area” value [34] was 0.481, the “normalized area” value [35] was 0.617 and the “normalized area” value [36] was 0.982. For the same compound, the “normalized area” value [37] was 0.179, the “normalized area” value [38] was 0.829 and the “normalized area” value [39] was 0.0483. The “normalized area” value [40] was 0.0382.
In the case of `Cc1noc2c1-c1ccccc1C(c1ccc(Cl)cc1)=N[C@H]2CC(N)=O` [CPI0610], the “normalized area” value [1] is reported as 0.746, the “normalized area” value [2] is reported as 0.52 and the “normalized area” value [3] is reported as 0.526. The “normalized area” value [4] was 0.63, the “normalized area” value [5] was 0.571 and the “normalized area” value [6] was 0.922. For the same compound, the “normalized area” value [7] was 0.721, the “normalized area” value [8] was 0.713 and the “normalized area” value [9] was 0.905. The “normalized area” value [10] was 0.693, the “normalized area” value [11] was 0.748 and the “normalized area” value [12] was 0.717. For the same compound, the “normalized area” value [13] was 0.771, the “normalized area” value [14] was 0.554 and the “normalized area” value [15] was 0.685. For the same compound, the “normalized area” value [16] was 0.728, the “normalized area” value [17] was 0.841 and the “normalized area” value [18] was 0.601. For the same compound, the “normalized area” value [19] was 0.492, the “normalized area” value [20] was 0.642 and the “normalized area” value [21] was 0.775. For the same compound, the “normalized area” value [22] was 0.686, the “normalized area” value [23] was 0.721 and the “normalized area” value [24] was 0.704. For the same compound, the “normalized area” value [25] was 0.556, the “normalized area” value [26] was 0.583 and the “normalized area” value [27] was 0.687. The “normalized area” value [28] was 0.782, the “normalized area” value [29] was 0.69 and the “normalized area” value [30] was 0.67. For the same compound, the “normalized area” value [31] was 0.61, the “normalized area” value [32] was 0.889 and the “normalized area” value [33] was 0.794. The “normalized area” value [34] was 0.629, the “normalized area” value [35] was 0.691 and the “normalized area” value [36] was 0.696. The “normalized area” value [37] was 0.938, the “normalized area” value [38] was 0.72 and the “normalized area” value [39] was 0.868. The “normalized area” value [40] was 0.675.
For `CC(C)C[C@H](NC(=O)CNC(=O)c1cc(Cl)ccc1Cl)B(O)O` [Ixazomib], the “normalized area” value [2] was 0.12, the “normalized area” value [4] was 0.1 and the “normalized area” value [5] was 0.306. The “normalized area” value [6] was 0.362, the “normalized area” value [7] was 0.146 and the “normalized area” value [8] was 0.355. The “normalized area” value [9] was 0.129, the “normalized area” value [10] was 0.114 and the “normalized area” value [11] was 0.355. The “normalized area” value [12] was 0.027, the “normalized area” value [13] was 0.303 and the “normalized area” value [16] was 0.0819. For the same compound, the “normalized area” value [19] was 0.157, the “normalized area” value [21] was 0.156 and the “normalized area” value [22] was 0.14. The “normalized area” value [23] was 0.0319, the “normalized area” value [27] was 0.344 and the “normalized area” value [29] was 0.45. The “normalized area” value [30] was 0.05, the “normalized area” value [31] was 0.09 and the “normalized area” value [32] was 0.104. The “normalized area” value [33] was 0.186, the “normalized area” value [36] was 0.453 and the “normalized area” value [37] was 0.285. For the same compound, the “normalized area” value [38] was 0.403 and the “normalized area” value [39] was 0.855.
With `O=C1CC[C@H](N2Cc3c(OCc4ccc(CN5CCOCC5)cc4)cccc3C2=O)C(=O)N1` [Iberdomide] the “normalized area” value [2] was 0.94, the “normalized area” value [4] was 0.86 and the “normalized area” value [6] was 0.968. For the same compound, the “normalized area” value [7] was 0.953, the “normalized area” value [10] was 0.917 and the “normalized area” value [12] was 0.947. For the same compound, the “normalized area” value [13] was 0.809, the “normalized area” value [21] was 0.913 and the “normalized area” value [23] was 0.913. For the same compound, the “normalized area” value [29] was 0.93, the “normalized area” value [30] was 0.91 and the “normalized area” value [31] was 0.78. The “normalized area” value [33] was 0.996, the “normalized area” value [36] was 0.921 and the “normalized area” value [37] was 0.983. The “normalized area” value [39] was 0.887.
For `CC(=O)OC[C@H]1O[C@@H]([S-])[C@H](OC(C)=O)[C@@H](OC(C)=O)[C@@H]1OC(C)=O.CCP(CC)CC.[Au+]` [Auranofin], the “normalized area” value [2] was 0.07, the “normalized area” value [4] was 0.08 and the “normalized area” value [6] was 0.372. For the same compound, the “normalized area” value [7] was 0.247, the “normalized area” value [10] was 0.157 and the “normalized area” value [12] was 0.0417. For the same compound, the “normalized area” value [13] was 0.344, the “normalized area” value [21] was 0.239 and the “normalized area” value [23] was 0.0579. For the same compound, the “normalized area” value [29] was 0.33, the “normalized area” value [30] was 0.05 and the “normalized area” value [31] was 0.09. For the same compound, the “normalized area” value [33] was 0.139, the “normalized area” value [36] was 0.611 and the “normalized area” value [37] was 0.553. The “normalized area” value [39] was 0.553.
With `Cc1[nH]c(/C=C2\C(=O)Nc3ccc(F)cc32)c(C)c1C(=O)NCCN1CCCC1` [Toceranib] the “normalized area” value [2] was 0.86, the “normalized area” value [4] was 0.88 and the “normalized area” value [5] was 0.667. For the same compound, the “normalized area” value [6] was 1.06, the “normalized area” value [7] was 0.728 and the “normalized area” value [8] was 0.818. For the same compound, the “normalized area” value [9] was 0.898, the “normalized area” value [10] was 0.702 and the “normalized area” value [11] was 0.993. For the same compound, the “normalized area” value [12] was 0.967, the “normalized area” value [13] was 0.894 and the “normalized area” value [16] was 0.723. The “normalized area” value [19] was 0.906, the “normalized area” value [21] was 0.756 and the “normalized area” value [22] was 0.898. For the same compound, the “normalized area” value [23] was 0.884, the “normalized area” value [27] was 0.796 and the “normalized area” value [29] was 0.79. For the same compound, the “normalized area” value [30] was 0.83, the “normalized area” value [31] was 0.82 and the “normalized area” value [32] was 0.831. For the same compound, the “normalized area” value [33] was 0.561, the “normalized area” value [36] was 0.959 and the “normalized area” value [37] was 0.902. The “normalized area” value [38] was 0.757 and the “normalized area” value [39] was 0.894.
